One may read the IC50 as the concentration needed to halve the response being measured. Low values mean greater potency, high ones weaker potency.

One test addresses human KHK-C (Homo sapiens (Human), UniProt P50053). Put plainly: KHK Biochemical Assay (IC50), ADP-Glo, KHK-C. The following applies: average of at least two separate assays. The method in brief:
(§1)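 ADP-Glo luminescence measured ADP made over a 4 h room-temperature reaction of ATP plus fructose, started after 30 min compound–enzyme pre-incubation. Buffer: 50 mM Hepes pH 7.4, 140 mM KCl, 5 mM MgCl2, 0.01% Triton-X. Enzyme was His-tagged, BL21 (DE3)-expressed, Ni-NTA-purified; compounds in 1:3 DMSO dilution series.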
Background: ADP-Glo turns the ADP formed in a reaction into a luminescent signal.

For a further test, the target named is human KHK-A (Homo sapiens (Human), UniProt P50053). The experiment in a line: KHK Biochemical Assay (IC50), ADP-Glo, KHK-A. The following applies: average of at least two separate assays. The method in brief: as §1
Chain of human KHK-A (P50053 other isoform, or with tags, fused parts or gaps): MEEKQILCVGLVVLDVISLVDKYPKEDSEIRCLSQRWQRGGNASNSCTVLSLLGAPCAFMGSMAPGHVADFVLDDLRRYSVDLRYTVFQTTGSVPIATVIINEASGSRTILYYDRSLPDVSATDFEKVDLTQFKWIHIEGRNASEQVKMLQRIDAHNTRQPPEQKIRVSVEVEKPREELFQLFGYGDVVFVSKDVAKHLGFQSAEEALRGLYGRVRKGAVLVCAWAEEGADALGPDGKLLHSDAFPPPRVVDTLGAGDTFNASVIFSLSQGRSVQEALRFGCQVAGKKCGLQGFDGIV

Chain of human KHK-C (P50053 whole entry): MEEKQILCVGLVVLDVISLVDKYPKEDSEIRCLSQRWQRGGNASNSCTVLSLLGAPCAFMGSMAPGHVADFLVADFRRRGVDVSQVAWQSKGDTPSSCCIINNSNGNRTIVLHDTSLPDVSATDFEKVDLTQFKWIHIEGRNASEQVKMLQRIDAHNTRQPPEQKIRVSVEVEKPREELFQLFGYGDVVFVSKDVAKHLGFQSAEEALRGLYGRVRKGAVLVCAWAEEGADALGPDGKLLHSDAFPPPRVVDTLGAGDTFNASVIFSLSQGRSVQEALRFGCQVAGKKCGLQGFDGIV

Regarding `CC1Cc2nc(N3CC[C@@H]3C)nc(-c3ccccc3)c2C1` (stereo partly drawn) [Example 337, 6-methyl-2-[(2S)-2-methylazetidin-1-yl]-4-phenyl-6,7-dihydro-5H-cyclopenta[d]pyrimidine], the IC50 at human KHK-C (ADP-Glo) amounted to 5.1 µM; on human KHK-A (ADP-Glo), 2.95 µM.

With `C[C@H]1CCN1c1nc2c(c(-c3ccc4c(c3)C(=O)NS4(=O)=O)n1)CCC2` [Example 239, (S)-5-(2-(2-methylazetidin-1-yl)-6,7-dihydro-5H-cyclopenta[d]pyrimidin-4-yl)benzo[d]isothiazol-3(2H)-one 1,1-dioxide], the values for the IC50 on human KHK-C (ADP-Glo) and against human KHK-A (ADP-Glo) were 0.0706 µM and 0.117 µM, respectively.

As for `CC1CCc2c(-c3ccccc3)nc(N3CC[C@@H]3C)nc21` (stereo partly drawn) [Example 336, 7-methyl-2-[(2S)-2-methylazetidin-1-yl]-4-phenyl-6,7-dihydro-5H-cyclopenta[d]pyrimidine], the values for the IC50 on human KHK-C (ADP-Glo) and at human KHK-A (ADP-Glo) were 20.1 µM and 13.2 µM, respectively.

Regarding `NC1(c2ccc(-c3nc(N4CC[C@@H]4C(F)(F)F)nc4c3CCC4(F)F)cc2)CCS(=O)(=O)CC1` [Example 738, (R)-4-amino-4-(4-(7,7-difluoro-2-(2-(trifluoromethyl)azetidin-1-yl)-6,7-dihydro-5H-cyclopenta[d]pyrimidin-4-yl)phenyl)tetrahydro-2H-thiopyran 1,1-dioxide], the IC50 on human KHK-C and against human KHK-A was 0.002 µM each time.

Turning to `C[C@H]1CCN1c1nc2c(c(-c3cccc(C(=O)NCCN)c3)n1)CCC2` [Example 52, (S)—N-(2-aminoethyl)-3-(2-(2-methylazetidin-1-yl)-6,7-dihydro-5H-cyclopenta[d]pyrimidin-4-yl)benzamide], the IC50 against human KHK-C (ADP-Glo) turned out to be 0.0427 µM; at human KHK-A (ADP-Glo), 0.0222 µM.

With `COc1ccc(-c2nc(N3CC[C@@H]3C)nc3c2CCC3)cc1S(=N)(=O)c1ccc(C#N)cc1C` (stereo partly drawn) [Example 846, 4-(2-methoxy-5-(2-((S)-2-methylazetidin-1-yl)-6,7-dihydro-5H-cyclopenta[d]pyrimidin-4-yl)phenylsulfonimidoyl)-3-methylbenzonitrile], the IC50 was found to be 0.0461 µM on human KHK-C (ADP-Glo) and 0.0336 µM at human KHK-A (ADP-Glo).

With `CC(=O)Nc1ncc(S(=O)(=O)Nc2cccc(-c3nc(N4CC[C@@H]4C)nc4c3CCC4)c2)s1` [Example 84, (S)—N-(5-(N-(3-(2-(2-methylazetidin-1-yl)-6,7-dihydro-5H-cyclopenta[d]pyrimidin-4-yl)phenyl)sulfamoyl)thiazol-2-yl)acetamide], the IC50 against human KHK-C (ADP-Glo) is 0.279 µM; at human KHK-A (ADP-Glo), 0.296 µM.

Take `C[C@H]1CCN1c1nc(-c2ccccc2)c2ncsc2n1` [Example 26, (S)-5-(2-methylazetidin-1-yl)-7-phenylthiazolo[5,4-d]pyrimidine]: the figures for the IC50 at human KHK-C (ADP-Glo) and on human KHK-A (ADP-Glo) were 1.54 µM and 1.86 µM, respectively.

Regarding `C[C@H]1[C@H](O)CN1c1nc(-c2ccc3c(c2)OC[C@]32COCC(=O)N2)c2c(n1)C(F)(F)CC2` (single isomer, unassigned) [Example 498], the values for the IC50 on human KHK-C and at human KHK-A were 0.0012 µM and 0.0189 µM, respectively.

On to `C[C@H]1CCN1c1nc2c(c(-c3cccc(-c4ccn[nH]4)c3)n1)CCC2` [Example 279, (S)-4-(3-(1H-pyrazol-5-yl)phenyl)-2-(2-methylazetidin-1-yl)-6,7-dihydro-5H-cyclopenta[d]pyrimidine], for which the results for the IC50 on human KHK-C (ADP-Glo) and against human KHK-A (ADP-Glo) were 0.201 µM and 0.159 µM, respectively.

`C[C@H]1CCN1c1nc2c(c(-c3ccc4c(c3)C3(CCC3)CNC4=O)n1)CCC2` [Example 865, (S)-6′-(2-(2-methylazetidin-1-yl)-6,7-dihydro-5H-cyclopenta[d]pyrimidin-4-yl)-2′,3′-dihydro-1′H-spiro[cyclobutane-1,4′-isoquinolin]-1′-one]: the IC50 against human KHK-C (ADP-Glo) was 0.0173 µM; against human KHK-A (ADP-Glo), 0.0254 µM.

As to `Cc1noc(C)c1S(=O)(=O)Nc1cccc(-c2nc(N3CC[C@@H]3C)nc3c2CCC3)c1` [Example 76, (S)-3,5-dimethyl-N-(3-(2-(2-methylazetidin-1-yl)-6,7-dihydro-5H-cyclopenta[d]pyrimidin-4-yl)phenyl)isoxazole-4-sulfonamide], the IC50 against human KHK-C (ADP-Glo) stood at 0.876 µM; against human KHK-A (ADP-Glo) it was 1.15 µM.

As to `C[C@H]1CCN1c1nc2c(c(-c3cccc(CC(=O)O)c3)n1)CCC2` [Example 6, (S)-2-(3-(2-(2-methylazetidin-1-yl)-6,7-dihydro-5H-cyclopenta[d]pyrimidin-4-yl)phenyl)acetic acid], the IC50 came to 0.243 µM against human KHK-C (ADP-Glo) and 0.285 µM at human KHK-A (ADP-Glo).

As for `C[C@H]1CCN1c1nc2c(c(-c3cccc(S(=O)(=O)NCCO)c3)n1)CCC2` [Example 54, (S)—N-(2-hydroxyethyl)-3-(2-(2-methylazetidin-1-yl)-6,7-dihydro-5H-cyclopenta[d]pyrimidin-4-yl)benzenesulfonamide], the IC50 worked out at 0.0404 µM on human KHK-C (ADP-Glo) and 0.042 µM against human KHK-A (ADP-Glo).

Take `C[C@H]1[C@H](F)CN1c1nc2c(c(-c3ccc(S(N)(=O)=O)cc3)n1)CCC2` [Example 198, 4-[2-[(2S,3R)-3-fluoro-2-methyl-azetidin-1-yl]-6,7-dihydro-5H-cyclopenta[d]pyrimidin-4-yl]benzenesulfonamide]: the half-maximal inhibitory concentration (IC50) came out at 0.0983 µM on human KHK-C (ADP-Glo) and 0.124 µM against human KHK-A (ADP-Glo).

For `C[C@H]1CCN1c1nc(-c2cccc(C(N)=O)c2)c2c(n1)C1CCC2C1` (stereo partly drawn) [Example 33, 3-(2-((S)-2-methylazetidin-1-yl)-5,6,7,8-tetrahydro-5,8-methanoquinazolin-4-yl)benzamide], the 50% inhibitory concentration (IC50) at human KHK-C (ADP-Glo) is 0.24 µM; at human KHK-A (ADP-Glo), 0.272 µM.

As to `C[C@H]1CCN1c1nc2c(c(-c3ccc(-c4nccn4C)cc3)n1)CCC2` [Example 101, (S)-4-(4-(1-methyl-1H-imidazol-2-yl)phenyl)-2-(2-methylazetidin-1-yl)-6,7-dihydro-5H-cyclopenta[d]pyrimidine], the IC50 against human KHK-C (ADP-Glo) was determined as 0.119 µM; on human KHK-A (ADP-Glo), 0.0691 µM.

On to `NS(=O)(=O)c1cccc(-c2nc(N3CC[C@@H]4[C@H](O)C[C@@H]43)nc3c2CCC3)c1` (racemic) [Example 80, (rac)-3-(2-((1S*,5S*,6R*)-6-hydroxy-2-azabicyclo[3.2.0]heptan-2-yl)-6,7-dihydro-5H-cyclopenta[d]pyrimidin-4-yl)benzenesulfonamide], for which the IC50 against human KHK-C (ADP-Glo) turned out to be 0.957 µM; at human KHK-A (ADP-Glo), 0.865 µM.

For the molecule `COc1ccc(-c2nc(N3CC[C@@H]3C)nc3c2CCC3)cc1S(=N)(=O)C1CCOCC1` (stereo partly drawn) [Example 840, imino(2-methoxy-5-(2-((S)-2-methylazetidin-1-yl)-6,7-dihydro-5H-cyclopenta[d]pyrimidin-4-yl)phenyl)(tetrahydro-2H-pyran-4-yl)-λ^6-sulfanone], the IC50 against human KHK-C (ADP-Glo) is 0.0263 µM; on human KHK-A (ADP-Glo), 0.0077 µM.

As to `Cc1ncc(-c2nc(N3CC[C@@H]3C)nc3c2CCC3)o1` [Example 325, 2-methyl-5-[2-[(2S)-2-methylazetidin-1-yl]-6,7-dihydro-5H-cyclopenta[d]pyrimidin-4-yl]oxazole], the IC50 amounted to 0.452 µM against human KHK-C (ADP-Glo) and 0.441 µM at human KHK-A (ADP-Glo).

Turning to `C[C@H]1[C@H](O)CN1c1nc(-c2cc3c(s2)CCC3NS(C)(=O)=O)c2c(n1)C(F)(F)CC2` (stereo partly shown) [Example 574], the values for the IC50 against human KHK-C and on human KHK-A were 0.0094 µM and 0.0111 µM, respectively.

As to `C[C@H]1CCN1c1nc(-c2ccccc2)c2c(n1)C1CCC2C1` (stereo partly drawn) [Example 31, 2-((S)-2-methylazetidin-1-yl)-4-phenyl-5,6,7,8-tetrahydro-5,8-methanoquinazoline], the IC50 worked out at 1.48 µM at human KHK-C (ADP-Glo) and 0.935 µM on human KHK-A (ADP-Glo).

Take `C[C@H]1CCN1c1nc2c(c(-c3ccc(-n4cccn4)cc3)n1)CCC2` [Example 102, (S)-4-(4-(1H-pyrazol-1-yl)phenyl)-2-(2-methylazetidin-1-yl)-6,7-dihydro-5H-cyclopenta[d]pyrimidine]: the results for the IC50 on human KHK-C (ADP-Glo) and at human KHK-A (ADP-Glo) were 0.42 µM and 0.279 µM, respectively.

As for `C[C@H]1CCN1c1nc2c(c(-c3cc(C(N)=O)ns3)n1)CCC2` [Example 85, (S)-5-(2-(2-methylazetidin-1-yl)-6,7-dihydro-5H-cyclopenta[d]pyrimidin-4-yl)isothiazole-3-carboxamide], the figures for the IC50 at human KHK-C (ADP-Glo) and on human KHK-A (ADP-Glo) were 1.37 µM and 1.12 µM, respectively.

On to `COc1ccc(-c2nc(N3CC[C@@H]3C)nc3c2CCC3)cc1S(=N)(=O)c1ccc(C#N)c(Cl)c1` (stereo partly drawn) [Example 845, 2-chloro-4-(2-methoxy-5-(2-((S)-2-methylazetidin-1-yl)-6,7-dihydro-5H-cyclopenta[d]pyrimidin-4-yl)phenylsulfonimidoyl)benzonitrile], for which the IC50 against human KHK-C (ADP-Glo) is 0.182 µM; at human KHK-A (ADP-Glo), 0.047 µM.

For the molecule `C[C@H]1[C@H](O)CN1c1nc2c(c(-c3ccc4c(c3)CN(C)C4=O)n1)CCC2` [Example 194, 5-[2-[(2S,3R)-3-hydroxy-2-methyl-azetidin-1-yl]-6,7-dihydro-5H-cyclopenta[d]pyrimidin-4-yl]-2-methyl-isoindolin-1-one], the IC50 against human KHK-C (ADP-Glo) came out at 0.219 µM; at human KHK-A (ADP-Glo), 0.308 µM.

As for `C[C@H]1CCN1c1nc2c(c(-c3ccc4c(c3)C3(CC3)C(=O)NC4=O)n1)CCC2` [Example 870, (S)-6′-(2-(2-methylazetidin-1-yl)-6,7-dihydro-5H-cyclopenta[d]pyrimidin-4-yl)-1′H-spiro[cyclopropane-1,4′-isoquinoline]-1′,3′(2′H)-dione], the 50% inhibitory concentration (IC50) against human KHK-C (ADP-Glo) was determined as 0.0695 µM; against human KHK-A (ADP-Glo) it was 0.0109 µM.

For `C[C@@H]1Oc2cc(-c3nc(N4CC[C@@H]4C)nc4c3CCC4)ccc2[C@@H]1NS(C)(=O)=O` [Example 887, N-((2s,3s)-2-methyl-6-(2-((S)-2-methylazetidin-1-yl)-6,7-dihydro-5H-cyclopenta[d]pyrimidin-4-yl)-2,3-dihydrobenzofuran-3-yl)methanesulfonamide], the results for the IC50 at human KHK-C (ADP-Glo) and at human KHK-A (ADP-Glo) were 0.0105 µM and 0.0444 µM, respectively.

With `C[C@H]1CCN1c1nc2c(c(-c3cccc(C(=O)Nc4cn[nH]c4)c3)n1)CCC2` [Example 64, (S)-3-(2-(2-methylazetidin-1-yl)-6,7-dihydro-5H-cyclopenta[d]pyrimidin-4-yl)-N-(1H-pyrazol-4-yl)benzamide], the results for the IC50 against human KHK-C (ADP-Glo) and against human KHK-A (ADP-Glo) were 0.107 µM and 0.0527 µM, respectively.
